From ChEMBL document CHEMBL4680150, “Design, synthesis and biological evaluation of vincamine derivatives as potential pancreatic β-cells protective agents for the treatment of type 2 diabetes mellitus” (Eur J Med Chem, 2020)
pEC50: −log10 of the molar value. The source made the active and inactive calls.

Experiments:
INS1(832/13) [1] = test: Cytoprotective activity in rat INS-1 832/13 cells assessed as inhibition of STZ-induced apoptosis at 20 uM incubated for 24 hrs by MTT assay relative to control; type: functional
INS1(832/13) [2] = test: Cytoprotective activity in rat INS-1 832/13 cells assessed as inhibition of STZ-induced apoptosis incubated for 24 hrs by MTT assay; type: functional, cell-based; conditions: INS-1 832/13, 24 h
INS1(832/13) [3] = test: Cytoprotective activity in rat INS-1 832/13 cells assessed as inhibition of STZ-induced apoptosis at 20 uM incubated for 24 hrs in presence of wortmannin by MTT assay; type: functional, cell-based
INS-1 832/13 [4] = test: Activation of AKT in STZ-induced rat INS-1 832/13 cells assessed as increase in Akt phosphorylation at 5 to 20 uM after 24 hrs by AlphaLISA assay; conditions: filed as activator, dose 5-20 µM
INS-1 832/13 [5] = test: Activation of PI3K/Akt signalling pathway in STZ-induced rat INS-1 832/13 cells assessed as decrease in cleaved-caspase 3 protein expression at 5 to 20 uM after 24 hrs by Western blot analysis; conditions: filed as activator, dose 5-20 µM
INS-1 832/13 [6] = test: Activation of PI3K/Akt signalling pathway in STZ-induced rat INS-1 832/13 cells assessed as increase in phosphorylation of GSK3beta at Ser9 residue at 5 to 20 uM after 24 hrs by Western blot analysis; conditions: filed as activator, dose 5-20 µM
INS1(832/13) [7] = test: Cytoprotective activity against STZ-induced toxicity in rat INS-1 832/13 cells assessed as mass of apoptotic cells at 5 uM by Annexin V-FITC staining based flow cytometric analysis (reference value: 40.8%); type: functional
INS1(832/13) [8] = test: Cytoprotective activity against STZ-induced toxicity in rat INS-1 832/13 cells assessed as mass of apoptotic cells at 10 uM by Annexin V-FITC staining based flow cytometric analysis (reference value: 40.8%); type: functional
INS1(832/13) [9] = test: Cytoprotective activity against STZ-induced toxicity in rat INS-1 832/13 cells at 10 uM incubated for 24 hrs by MTT assay; type: functional, cell-based
INS1(832/13) [10] = test: Cytoprotective activity against STZ-induced toxicity in rat INS-1 832/13 cells assessed as mass of apoptotic cells at 20 uM by Annexin V-FITC staining based flow cytometric analysis (reference value: 40.8%); type: functional
INS-1 832/13 [11] = test: Activation of PI3K/Akt signalling pathway in STZ-induced rat INS-1 832/13 cells assessed as increase in phosphorylation of FOX01 at Ser256 residue at 5 to 20 uM after 24 hrs by Western blot analysis; conditions: filed as activator, dose 5-20 µM
INS-1 832/13 [12] = test: Activation of AKT in STZ-induced rat INS-1 832/13 cells assessed as increase in Akt phosphorylation at 5 to 20 uM after 24 hrs by Western blot analysis; conditions: filed as activator, dose 5-20 µM
INS1(832/13) [13] = test: Cytoprotective activity against STZ-induced rat INS-1 832/13 cells assessed as increase in IRS2 mRNA expression at 5 to 20 uM after 24 hrs RT-PCR analysis; type: functional, cell-based; conditions: dose 5-20 µM
INS-1 832/13 [14] = test: Activation of PI3K/Akt signalling pathway in STZ-induced rat INS-1 832/13 cells assessed as decrease in caspase 9 protein expression at 5 to 20 uM after 24 hrs by Western blot analysis; conditions: filed as activator, dose 5-20 µM
INS-1 832/13 [15] = test: Activation of AKT in STZ-induced rat INS-1 832/13 cells assessed as increase in Akt phosphorylation at 20 uM after 24 hrs in presence of wortmannin by Western blot analysis
INS1(832/13) [16] = test: Cytoprotective activity against STZ-induced rat INS-1 832/13 cells assessed as increase in IRS2 protein expression at 5 to 20 uM after 24 hrs Western blot analysis; type: functional, cell-based; conditions: dose 5-20 µM
INS-1 832/13 [17] = test: Activation of PI3K/Akt signalling pathway in STZ-induced rat INS-1 832/13 cells assessed as decrease in p21 mRNA expression at 5 to 20 uM after 24 hrs by RT-PCR analysis; conditions: filed as activator, dose 5-20 µM
INS-1 832/13 [18] = test: Activation of PI3K/Akt signalling pathway in STZ-induced rat INS-1 832/13 cells assessed as decrease in caspase 3 protein expression at 5 to 20 uM after 24 hrs by Western blot analysis; conditions: filed as activator, dose 5-20 µM
INS1(832/13) [19] = test: Potency index, ratio of vincamine EC50 to test compound EC50 for cytoprotective activity in rat INS-1 832/13 cells assessed as inhibition of STZ-induced apoptosis; type: functional
INS-1 832/13 [20] = test: Activation of PI3K/Akt signalling pathway in STZ-induced rat INS-1 832/13 cells assessed as decrease in Bim mRNA expression at 5 to 20 uM after 24 hrs by RT-PCR analysis; conditions: filed as activator, dose 5-20 µM

| SMILES | Activity (INS1(832/13) [1]) | pEC50 (INS1(832/13) [2]) | further results |
| --- | --- | --- | --- |
| CC[C@@]12C=C(C(=O)N3CCCCC3)n3c4c(c5ccccc53)CCN(CCC1)[C@H]42 | Active | 5.31 | – |
| CC[C@@]12C=C(CO)n3c4c(c5ccccc53)CCN(CCC1)[C@H]42 | – | 6.66 | Activity (INS1(832/13) [3]): inactive; Activity (INS-1 832/13 [4]): Active; Activity (INS-1 832/13 [5]): Active; Activity (INS-1 832/13 [6]): Active; Activity (INS1(832/13) [7]): 32%; Activity (INS1(832/13) [8]): 26.1%; Activity (INS1(832/13) [9]): Active; Activity (INS1(832/13) [10]): 19.1%; Activity (INS-1 832/13 [11]): Active; Activity (INS-1 832/13 [12]): Active; Activity (INS1(832/13) [13]): Active; Activity (INS-1 832/13 [14]): Active; Activity (INS-1 832/13 [15]): inactive; Activity (INS1(832/13) [16]): Active; Activity (INS-1 832/13 [17]): Active; Activity (INS-1 832/13 [18]): Active; Ratio EC50 (INS1(832/13) [19]): 2; Activity (INS-1 832/13 [20]): Active |
| CCNC(=O)NCC1=C[C@]2(CC)CCCN3CCc4c(n1c1ccccc41)[C@@H]32 | inactive | – | – |
| CC[C@@]12C=C(CNC(=O)c3ccccc3)n3c4c(c5ccccc53)CCN(CCC1)[C@H]42 | inactive | – | – |
| CC[C@@]12C=C(C(=O)NC(C)C)n3c4c(c5ccccc53)CCN(CCC1)[C@H]42 | Active | 4.97 | – |
| CCCCCNC(=O)C1=C[C@]2(CC)CCCN3CCc4c(n1c1ccccc41)[C@@H]32 | inactive | – | – |
| CC[C@@]12C=C(C(=O)NCCCO)n3c4c(c5ccccc53)CCN(CCC1)[C@H]42 | Active | 4.99 | – |
| CC[C@@]12C=C(C(=O)NC)n3c4c(c5ccccc53)CCN(CCC1)[C@H]42 | Active | 6.18 | – |
| CC[C@@]12C=C(COC(=O)NCCCO)n3c4c(c5ccccc53)CCN(CCC1)[C@H]42 | Active | 5.04 | – |
| CCCC(=O)OCC1=C[C@]2(CC)CCCN3CCc4c(n1c1ccccc41)[C@@H]32 | Active | 5.42 | – |
| CC[C@@]12C=C(COC(=O)C(C)C)n3c4c(c5ccccc53)CCN(CCC1)[C@H]42 | Active | 5.76 | – |
| CCCNC(=O)OCC1=C[C@]2(CC)CCCN3CCc4c(n1c1ccccc41)[C@@H]32 | Active | 5.23 | – |
| CCNC(=O)OCC1=C[C@]2(CC)CCCN3CCc4c(n1c1ccccc41)[C@@H]32 | Active | 5.77 | – |
| CC[C@@]12C=C(COC(N)=O)n3c4c(c5ccccc53)CCN(CCC1)[C@H]42 | Active | 5.06 | – |
| CC[C@@]12C=C(CNC(=O)NC)n3c4c(c5ccccc53)CCN(CCC1)[C@H]42 | inactive | – | – |
| CCCCN(CCCC)C(=O)C1=C[C@]2(CC)CCCN3CCc4c(n1c1ccccc41)[C@@H]32 | inactive | – | – |
| CCCCNC(=O)OCC1=C[C@]2(CC)CCCN3CCc4c(n1c1ccccc41)[C@@H]32 | inactive | – | – |
| CCNC(=O)C1=C[C@]2(CC)CCCN3CCc4c(n1c1ccccc41)[C@@H]32 | Active | 6.70 | – |
| CCCC(=O)NCC1=C[C@]2(CC)CCCN3CCc4c(n1c1ccccc41)[C@@H]32 | Active | 5.06 | – |
| CC[C@@]12C=C(CNC(=O)C3CC3)n3c4c(c5ccccc53)CCN(CCC1)[C@H]42 | Active | 5.36 | – |
| CC[C@@]12C=C(C(=O)NC3CCCC3)n3c4c(c5ccccc53)CCN(CCC1)[C@H]42 | Active | 4.89 | – |
| CC[C@@]12C=C(CNCc3ccccc3)n3c4c(c5ccccc53)CCN(CCC1)[C@H]42 | inactive | – | – |
| CC[C@@]12C=C(C(=O)N3CCOCC3)n3c4c(c5ccccc53)CCN(CCC1)[C@H]42 | Active | 4.96 | – |
| CC[C@@]12C=C(CNC(N)=O)n3c4c(c5ccccc53)CCN(CCC1)[C@H]42 | inactive | – | – |
| CC[C@@]12C=C(COC(C)=O)n3c4c(c5ccccc53)CCN(CCC1)[C@H]42 | Active | 6.44 | – |

| SMILES | Activity (INS1(832/13) [1]) | pEC50 (INS1(832/13) [2]) | further results |
| --- | --- | --- | --- |
| CC[C@@]12C=C(C(=O)N(C)C)n3c4c(c5ccccc53)CCN(CCC1)[C@H]42 | inactive | – | – |
| CC[C@@]12C=C(C(=O)OC(C)C)n3c4c(c5ccccc53)CCN(CCC1)[C@H]42 | Active | 5.34 | – |
| CC[C@@]12C=C(CNC(=O)C(C)C)n3c4c(c5ccccc53)CCN(CCC1)[C@H]42 | Active | 5.14 | – |
| CCN(CC)C(=O)C1=C[C@]2(CC)CCCN3CCc4c(n1c1ccccc41)[C@@H]32 | Active | 4.94 | – |
| CC[C@@]12C=C(COC(=O)NCCO)n3c4c(c5ccccc53)CCN(CCC1)[C@H]42 | Active | 5.27 | – |
| CCCCNC(=O)C1=C[C@]2(CC)CCCN3CCc4c(n1c1ccccc41)[C@@H]32 | Active | 5.03 | – |
| CCCNCC1=C[C@]2(CC)CCCN3CCc4c(n1c1ccccc41)[C@@H]32 | inactive | – | – |
| CC[C@@]12C=C(C(=O)OC)n3c4c(c5ccccc53)CCN(CCC1)[C@H]42 [APOVINCAMINE] | Active | 5.30 | – |
| CCCN(CCC)C(=O)C1=C[C@]2(CC)CCCN3CCc4c(n1c1ccccc41)[C@@H]32 | Active | 5.15 | – |
| CC[C@@]12C=C(CNC(=O)Nc3ccccc3)n3c4c(c5ccccc53)CCN(CCC1)[C@H]42 | inactive | – | – |
| CC[C@@]12C=C(C(=O)Nc3ccc(OC)cc3)n3c4c(c5ccccc53)CCN(CCC1)[C@H]42 | inactive | – | – |
| CC[C@@]12C=C(C(=O)NCCO)n3c4c(c5ccccc53)CCN(CCC1)[C@H]42 | Active | 6.02 | – |
| CC[C@@]12C=C(C(=O)N3CCCC3)n3c4c(c5ccccc53)CCN(CCC1)[C@H]42 | Active | 4.88 | – |
| CC[C@@]12C=C(COC(=O)NC)n3c4c(c5ccccc53)CCN(CCC1)[C@H]42 | Active | 5.78 | – |
| CC[C@@]12C=C(CN)n3c4c(c5ccccc53)CCN(CCC1)[C@H]42 | Active | 5.12 | – |
| CC[C@@]12C=C(COC(=O)Nc3ccccc3)n3c4c(c5ccccc53)CCN(CCC1)[C@H]42 | inactive | – | – |
| CC[C@@]12C=C(CNC)n3c4c(c5ccccc53)CCN(CCC1)[C@H]42 | Active | 5.80 | – |
| CC[C@@]12C=C(C(N)=O)n3c4c(c5ccccc53)CCN(CCC1)[C@H]42 | inactive | 4.99 | – |
| CC[C@@]12C=C(C(=O)Nc3ccccc3)n3c4c(c5ccccc53)CCN(CCC1)[C@H]42 | inactive | – | – |
| CC[C@@]12C=C(COC(=O)NC(C)C)n3c4c(c5ccccc53)CCN(CCC1)[C@H]42 | Active | 4.97 | – |
| CCC(=O)OCC1=C[C@]2(CC)CCCN3CCc4c(n1c1ccccc41)[C@@H]32 | Active | 5.16 | – |
| CC[C@@]12C=C(COC(=O)c3ccccc3)n3c4c(c5ccccc53)CCN(CCC1)[C@H]42 | inactive | – | – |
| CCCOC(=O)C1=C[C@]2(CC)CCCN3CCc4c(n1c1ccccc41)[C@@H]32 | Active | 5.26 | – |
| CCC(=O)NCC1=C[C@]2(CC)CCCN3CCc4c(n1c1ccccc41)[C@@H]32 | Active | 5.52 | – |
| CCCNC(=O)C1=C[C@]2(CC)CCCN3CCc4c(n1c1ccccc41)[C@@H]32 | Active | 6.43 | – |
